The values that follow come from a melting point compilation (Tetko et al.; mined from patent text by program, amines drawn as free bases though some values may be those of a salt).

Usually melting point stands for the temperature of the solid-liquid transition. Turning to `Cc1nnc(-c2ccc3occ(-c4ccc(S(C)(=O)=O)c(OC(F)(F)F)c4)c3c2)o1`, the melting point lay in the range of 218 to 219 °C.

`CCc1nn2c(N)cc(Cl)nc2c1S(=O)(=O)c1ccccc1` gave a melting point of over 220 °C.

`CC(C)c1cc(C(=O)CNc2ccc(C(=O)O)cc2)oc1C(C)C` displayed a melting point of 184 to 186 °C.

Regarding `O=C(O)C1CCCc2c(OCc3ccccc3)cccc21` (centres undefined), the melting point lay within 145 to 146 °C.

With `O=C(c1ccc(-c2ccccc2)cc1)C(Br)CC(=O)N1CCC[C@H]1C(=O)O` (some centres undefined), the melting point was 131 to 133 °C.

Regarding `CC(C)C(=O)O[C@@H](OC(=O)ON1C(=O)[C@H](OC(=O)c2ccccc2)[C@@H](OC(=O)c2ccccc2)C1=O)C(C)C`, the melting point fell in the range of 138 to 140 °C.

With `CC(=O)c1cc(N)c(Cl)cc1Cl`, the melting point was 74 °C.

The compound `CC1Cc2ccc([Si](C)(C)C)c(S(N)(=O)=O)c2S1(=O)=O` (centres undefined) registered a melting point of 171 to 172 °C.

Take `CC1=NN=C(C=Cc2cccc(F)c2)c2cc3c(cc2C1)OCO3`: the melting point fell in the range of 161 to 162 °C.

Compound `Nc1c(F)c(F)cc2c1c(=O)c(C(=O)O)cn2C1COC1` returned a melting point of over 300 °C.

On to `Cc1cc(C)cc(COC(=O)C(Cc2c[nH]c3ccccc23)NC(=O)c2ccccc2)c1` (centres undefined), for which the melting point is 133 to 134 °C.

On to `CCOC(=O)c1coc(-c2ccc(CO)cc2)n1`, for which the melting point is 99 to 101 °C.

For the compound `O=C(O)C1CCc2c(Cc3ccc(Cl)cc3)cccc21` (centres undefined), the melting point was 127 to 129 °C.

Regarding `CCc1c(C)c(NC(=O)CC(C)(C)C)c(C)c2c1OCC2c1ccc(C(C)C)cc1` (centres undefined), the melting point lay within 135 to 136 °C.

Turning to `CC(=O)OC1=CC2=CCC3C(CCC4(C)C(OC(C)=O)CCC34)C2CC1` (centres undefined), the melting point lay within 165 to 171 °C.

On to `O=C1C2=C(CCCC2)C(=O)N1c1ccc(Br)cc1F`, for which the melting point came to 102 °C.

Regarding `CC(OC(=O)OC1CCCCC1)OC(=O)C1(C(=O)OC(C)OC(=O)OC2CCCCC2)Oc2ccc(C[C@@H](C)NC[C@H](O)c3cccc(Cl)c3)cc2O1` (some centres undefined), the melting point is 78 to 81 °C.

Compound `O=C(NCC1CN(Cc2ccccc2)CCO1)c1cccc2c1OCO2` (centres undefined) yielded a melting point of 144 to 146 °C.

The compound `O=C(O)Cc1c(C(=O)c2ccccc2)[nH]c2cccc(Cl)c12` returned a melting point of 206 to 209 °C.

`CCCc1ccc(NC(=O)c2cccnc2NCc2ccncc2)cc1C(F)(F)F` showed a melting point of 147 to 149 °C.

The compound `C[C@@H]1OC(=O)[C@@H](NC(=O)OC(C)(C)C)COC[C@H](Cc2ccccc2)[C@H]1OCCC(=O)N(C)C` returned a melting point of 142 to 143 °C.

As for `COc1ccccc1NS(=O)(=O)c1ccc(C)cc1`, the melting point was in the range of 126 to 128 °C.

`CCCC1(C)C(C#N)C(=O)NC(=O)C1C#N` (centres undefined) registered a melting point of 204 to 205 °C.

`CN(C)CCn1c(=O)c2c3oc4ccccc4oc3c3[nH]c4cc(O)ccc4c3c2c1=O` yielded a melting point of over 360 °C.

The compound `CC(C)(C)OC(=O)N1CC[C@@H](CN(Cc2ccccc2)Cc2ccccc2)[C@H](O)C1` (relative stereo) yielded a melting point of 133 °C.

`CCC(CC)N1CCN(C)c2c1cc(C)nc2Oc1c(C)cc(C)cc1C` displayed a melting point of 78 to 80 °C.

With `CC(C)(C)OC(=O)NC(Cc1ccccc1)C1CC(Cc2ccccc2)=NO1` (centres undefined), the melting point fell in the range of 106 to 107 °C.

The compound `C#CCC(Oc1cccc(C)c1C)C1=NCCN1` (centres undefined) displayed a melting point of 70 to 73 °C.

In turn, `CCOC(=O)C1=C(NC(C)=O)C(=O)O[C@@H]1C` came in with a melting point of 119 to 122 °C.

The compound `CCOC(=O)C(CC)CCc1cc(-c2ccccc2)nc2ccccc12` (centres undefined) gave a melting point of 76 °C.

On to `Fc1ccc(-c2cc3[nH]ccn3n2)cc1`, for which the melting point lay in the range of 225 to 227 °C.

As to `O=C(Cc1ccc(F)cc1)Nc1ccc(-n2nc(C3CC3)cc2C2CC2)cc1`, the melting point is 141 to 148 °C.

`Fc1nc(NCc2ccccn2)c2nc[nH]c2n1`: the melting point is 217 to 220 °C.

`COc1ccc(-c2c(SCc3ccncc3)oc3cc(OCc4ccccc4)ccc3c2=O)cc1` registered a melting point of 170 °C.

Consider `CSc1ccccc1-c1ccc(C(=O)O)cc1`, for which the melting point was 220 to 222 °C.

With `Cc1cc(SCc2cccc3nc(-c4ccc(C(F)(F)F)cc4)sc23)ccc1OCC(=O)O`, the melting point lay within 193 to 196 °C.

Regarding `O=Cc1cc(-c2cccs2)ccc1O`, the melting point lay within 102 to 103 °C.

In turn, `Cc1c(C)c2ccc(OCCCN3CCN(Cc4ccc(Cl)cc4)CC3)cc2[nH]c1=O` yielded a melting point of 143 to 144 °C.

For the compound `CCOC(=O)Nc1c(C(=O)O)oc2cc(OCc3ccccc3)ccc12`, the melting point is 198 °C.

Compound `CCCCCCOC(=O)COc1ccc(F)c(C(N)=O)c1F` yielded a melting point of 108 °C.

Compound `CC(C)(C)C(=O)Oc1nc2c(N)ncnc2n1Cc1ccccc1` registered a melting point of 202 to 204 °C.

In turn, `CCOC(=O)n1c(C(=O)c2cncnc2)c(NC(C)=O)c2ccc(Cl)cc21` registered a melting point of 214 to 215 °C.

In the case of `CCc1nc2ncnn2c(N[C@H]2CC[C@@H](C(C)(C)C)CC2)c1Cl`, the melting point lay in the range of 120 to 122 °C.

Consider `O=C(NC[C@H]1CN(c2cc(F)c(N3CCC(n4nccn4)CC3)c(F)c2)C(=O)O1)C(F)F`, for which the melting point was in the range of 254 to 255 °C.

As to `COc1ccc(-n2c3ccccc3c3cc(C=C(C#N)c4cc(F)cc(F)c4)ccc32)cc1`, the melting point lay within 200 to 203 °C.

In turn, `c1csc(-c2cn([C@H]3CN4CCC3CC4)nn2)c1` returned a melting point of 137 °C.

Regarding `CSC1C(=O)Nc2c(OCc3ccccc3)cccc21` (centres undefined), the melting point was 127 to 129 °C.

The compound `OC1(C2CCN(Cc3ccccc3)CC2)c2ccsc2CCn2ccnc21` (centres undefined) gave a melting point of 189 °C.

`COc1ccc(C(F)(F)F)cc1Nc1ccc(C(F)(F)F)cc1[N+](=O)[O-]` returned a melting point of 86 to 88 °C.

Turning to `Cc1nc(C(O)(c2ccsc2)C(F)(F)F)sc1C` (centres undefined), the melting point fell in the range of 90 to 92 °C.

`CN(CC(=O)Nc1ccc(Cl)cc1)C(=O)OC(C)(C)C` came in with a melting point of 126 to 128 °C.

The compound `COC(=O)c1cc(NC(C)=O)ccc1OC(C)=O` gave a melting point of 133 to 135 °C.

As to `Cc1nc(N2C(=O)CN(c3ccc(F)cc3)C2=O)sc1C(=O)NCc1ccccc1`, the melting point was 217 to 219 °C.

Compound `O=S(=O)(O)c1cncc(Br)c1` registered a melting point of over 300 °C.

Consider `COC(=O)c1cc(Cl)cc(C=O)c1O`, for which the melting point lay in the range of 132 to 134 °C.

With `CC(=O)c1ccc(S(=O)(=O)N(CCO)CCO)cc1`, the melting point is 87.5 to 89.5 °C.

For `COCN1C(=O)CN=C(c2ccccc2)c2cc(NO)ccc21`, the melting point was in the range of 168 to 170 °C.

`Cc1noc(NS(=O)(=O)c2cccc([N+](=O)[O-])c2)c1Br` had a melting point of 151 to 153 °C.

Compound `CC(C)(C)OC(=O)CN1CCC2(CCNCC2)OC1=O` yielded a melting point of 110 to 115 °C.

In turn, `N#Cc1ccc(CCc2n[nH]c3c2c(=O)n(-c2ccccc2)c2ncccc32)cc1` returned a melting point of 267 to 269 °C.

For the compound `Cc1ccc2scc(CCNc3ncnc4c3ncn4C3OC(CO)C(O)C3O)c2c1` (centres undefined), the melting point lay in the range of 158 to 160 °C.

On to `CC1(C)C=Cc2c(ccc3c2OCC2(O)c4ccc(O)cc4OC32)O1` (single isomer, unassigned; (-)), for which the melting point is 95 to 101 °C.

In turn, `CCCc1ncc2cc(Cl)nc(OC)n12` yielded a melting point of 76 to 77 °C.

`c1cc2c(c(OCC3CO3)c1)CC1OC1C2` (centres undefined) showed a melting point of 85 to 87 °C.

In the case of `O=c1[nH][nH]c(=O)c2c(O)c3cc([N+](=O)[O-])ccc3nc12`, the melting point is 264 °C.

`CCCn1cnc(C(N)=O)c1NC(=S)NC(=O)c1ccccc1` registered a melting point of 163 to 164 °C.

Compound `CSc1nccn1CC(=O)NC1C(=O)N2C(C(=O)O)=C(COC(C)=O)CSC12` (centres undefined) returned a melting point of 245 to 247 °C.

`CC(C(=O)O)c1ccc2sc3ncccc3c(=O)c2c1` (centres undefined) came in with a melting point of 206 to 208 °C.

In turn, `Cc1cc([N+](=O)[O-])cc(C(=O)NC(C)C)c1NC(=O)c1cc(C(F)(F)F)nn1-c1ncccc1Cl` had a melting point of 170 to 172 °C.

`NC(=O)C1(Nc2ccccc2)CCN(C2CCCc3ccccc32)CC1` (centres undefined): the melting point was in the range of 186 to 187 °C.

Take `CCOC(=O)c1cnc2ccc(CC)nc2c1Nc1ccc(OC)cc1`: the melting point lay in the range of 145 to 148 °C.

In turn, `O=C(O)C(=O)Nc1cc(Cl)cc(NC(=O)C(=O)O)n1` had a melting point of over 320 °C.

In turn, `Nc1ccc(-c2ccc(=O)[nH]n2)cc1Cl` had a melting point of 280 to 282 °C.

Consider `Nc1cc(Sc2ccc(Cl)cc2)nc(-c2ccccc2)n1`, for which the melting point lay in the range of 118 to 121 °C.

In turn, `CCN(CC)C(=O)c1ccccc1-c1ccc2ccccc2c1` showed a melting point of 52 to 53 °C.

As for `CC(C)C1NC(=O)C(CSSCC2NC(=O)C(C(C)C)NC2=O)NC1=O` (centres undefined), the melting point was 270 °C.

Compound `CCCCCCCCCCCCc1cc(C(=O)OCC)no1` showed a melting point of 34 to 36 °C.

The compound `CCCCOC(=O)CNC(=O)c1nc2ccc(OCCCC)cc2cc1OCc1ccccc1` came in with a melting point of 99 to 101 °C.

In the case of `CCOC(=O)c1oc(Br)nc1C`, the melting point lay within 94.5 to 95.5 °C.

`CCOC(=O)Cc1ccc(NC(=O)C(COc2ccccc2Cl)NS(=O)(=O)c2ccc(I)cc2)cc1` (racemic) registered a melting point of 140 to 142 °C.

Turning to `COc1ccc(C(=O)Nc2ccc3ccc(Oc4cccc(F)c4)nc3n2)cc1`, the melting point amounted to 151 °C.

Consider `Cc1cc2c(cc1Br)cc1n2[C@H](C)CN(C(=O)OC(C)(C)C)C1`, for which the melting point lay in the range of 113 to 114 °C.

`CC(=O)OCCCNC(=O)CCC(NC(=O)C=Cc1ccco1)C(=O)NCCCOC(C)=O` (centres undefined) returned a melting point of 132 to 134 °C.

Take `Cc1cnn(-c2cc(N)c(Cl)cc2Cl)c(=O)c1Br`: the melting point worked out at 211 °C.

The compound `COC(=O)c1cccc(-c2cccc(Oc3ccc(Cl)c(Cl)c3)n2)c1` showed a melting point of 133 to 134 °C.

Compound `Cn1cnc(COc2nn3c(-c4ccccc4)nnc3cc2-c2cccs2)n1` yielded a melting point of 237 to 239 °C.

Take `CC1(C)COC(=O)N1c1nc(-c2ccc(Br)cc2)cs1`: the melting point fell in the range of 165 to 167 °C.

The compound `CC(C)c1cccc(C(C)C)c1N1C(=O)c2cccc3c(Br)ccc(c23)C1=O` yielded a melting point of 277 °C.

In turn, `CC(C)(C)OC(=O)N[C@H](Cc1ccccc1)C(=O)NCC(=O)OCc1ccccc1` returned a melting point of 133 to 134 °C.
